Measured values published in the supplement of paper PMC11061612.

Columns and labels:
Test in all cases: Bliss excess, mean over the matrix (fraction); higher = more synergy
[1] = tested on: PANC-02-03 (Pancreatic Carcinoma)
How it was run: (§1)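 After 24 hours at 37°C and 5% CO2 in 1536-well plates, cells in DMEM/F12 or RPMI plus 10% FBS received two-drug dose matrices for 72 hours. Viability came from CellTiter-Glo 2.0 luminescence and was scaled as inhibition, anchored at 0 by vehicle wells and at 1 by blank wells. Combination Emax is taken as the second-highest inhibition in the matrix, and Bliss excess as the observed combination effect less EA + EB − EA·EB, with EA and EB the single-agent effects.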

RT4 (Bladder Carcinoma) = tested on: RT4 (Bladder Carcinoma)
How it was run: as §1

[2] = tested on: RPMI-8866 (Chronic Myelogenous Leukemia)
How it was run: as §1

[3] = tested on: AsPC-1 (Pancreatic Carcinoma)
How it was run: as §1

786-0 (Kidney Carcinoma) = tested on: 786-0 (Kidney Carcinoma)
How it was run: as §1

[4] = tested on: COLO-684 (Endometrial Carcinoma)
How it was run: as §1

[5] = tested on: PC-14 (Lung Adenocarcinoma)
How it was run: as §1

[6] = tested on: RMG-I (Ovarian Carcinoma)
How it was run: as §1

[7] = tested on: JHH-1 (Hepatocellular Carcinoma)
How it was run: as §1

KYM-1 (Rhabdomyosarcoma) = tested on: KYM-1 (Rhabdomyosarcoma)
How it was run: as §1

[8] = tested on: NCI-H1155 (Non-Small Cell Lung Carcinoma)
How it was run: as §1

[9] = tested on: SNU-175 (Colorectal Carcinoma)
How it was run: as §1

[10] = tested on: SK-MM-2 (Plasma Cell Myeloma)
How it was run: as §1

[11] = tested on: OV-90 (Ovarian Carcinoma)
How it was run: as §1

[12] = tested on: HTC-C3 (Thyroid Gland Carcinoma)
How it was run: as §1

[13] = tested on: OCI-AML5 (Acute Myeloid Leukemia)
How it was run: as §1

[14] = tested on: RL95-2 (Endometrial Carcinoma)
How it was run: as §1

[15] = tested on: HSC-3 (Oral Cavity Carcinoma)
How it was run: as §1

[16] = tested on: OVTOKO (Ovarian Carcinoma)
How it was run: as §1

CHL-1 (Melanoma) = tested on: CHL-1 (Melanoma)
How it was run: as §1

Row | SMILES | Bliss excess [1] | Bliss excess (RT4 (Bladder Carcinoma)) | Bliss excess [2] | Bliss excess [3] | Bliss excess (786-0 (Kidney Carcinoma)) | Bliss excess [4] | Bliss excess [5] | Bliss excess [6] | Bliss excess [7] | Bliss excess (KYM-1 (Rhabdomyosarcoma)) | Bliss excess [8] | Bliss excess [9] | Bliss excess [10] | Bliss excess [11] | Bliss excess [12] | Bliss excess [13] | Bliss excess [14] | Bliss excess [15] | Bliss excess [16] | Bliss excess (CHL-1 (Melanoma))
1 | CCN(CCO)CCCOc1ccc2c(Nc3cc(CC(=O)Nc4cccc(F)c4)[nH]n3)ncnc2c1 [AZD2811] + C[C@@H]1COCCN1C2=NC(=NC(=C2)C3(CC3)[S@](=N)(=O)C)C4=C5C=CNC5=NC=C4 [AZD6738] (first compound max 1 µM, 7x7, partner max 10 µM) | -0.101 | -0.0318 | -0.0271 | -0.0164 | -0.0465 | -0.0913 | -0.0492 | -0.0734 | -0.0574 | -0.0214 | -0.0099 | -0.07 | -0.0732 | -0.0772 | -0.0273 | -0.0299 | -0.0873 | -0.0195 | -0.0305 | -0.0344
2 | CCN(CCO)CCCOc1ccc2c(Nc3cc(CC(=O)Nc4cccc(F)c4)[nH]n3)ncnc2c1 [AZD2811] + O=C(c1cc(Cc2n[nH]c(=O)c3ccccc23)ccc1F)N1CCN(C(=O)C2CC2)CC1 [Olaparib] (first compound max 1 µM, 7x7, partner max 10 µM) | 0.0133 | 0.0243 | 0.147 | -0.0273 | -0.0274 | -0.0102 | 0.0228 | -0.0141 | 0.0078 | 0.0071 | 0.0393 | -0.0141 | -0.0256 | -0.0026 | -0.0101 | -0.0224 | -0.0101 | 0.0273 | -0.012 | -0.0035
3 | CN(CCO)CC[C@H](CSc1ccccc1)Nc1ccc(S(=O)(=O)NC(=O)c2ccc(N3CCC([C@@H](O)c4ccccc4-c4ccc(Cl)cc4)CC3)cc2)cc1S(=O)(=O)C(F)(F)F [AZD4320] + C1CN(CCC1(C(=O)N[C@@H](CCO)C2=CC=C(C=C2)Cl)N)C3=NC=NC4=C3C=CN4 [Capivasertib] (first compound max 1 µM, 7x7, partner max 3 µM) | -0.0617 | -0.0716 | -0.0553 | -0.0665 | -0.0318 | -0.0157 | -0.03 | -0.0527 | -0.149 | -0.021 | 0.0147 | -0.0205 | -0.0077 | -0.0635 | -0.0498 | 0.0104 | -0.0192 | -0.037 | -0.0381 | -0.028
4 | CN(CCO)CC[C@H](CSc1ccccc1)Nc1ccc(S(=O)(=O)NC(=O)c2ccc(N3CCC([C@@H](O)c4ccccc4-c4ccc(Cl)cc4)CC3)cc2)cc1S(=O)(=O)C(F)(F)F [AZD4320] + C=CCn1c(=O)c2cnc(Nc3ccc(N4CCN(C)CC4)cc3)nc2n1-c1cccc(C(C)(C)O)n1 [AZD1775] (first compound max 1 µM, partner max 1 µM) | 0.0045 | 0.0755 | 0.0402 | 0.047 | -0.0685 | -0.0301 | 0.0069 | 0.0664 | 0.136 | 0.0515 | 0.0675 | -0.0371 | 0.0011 | 0.0909 | 0.08 | 0.0099 | 0.006 | -0.0083 | 0.0002 | 0.0509
5 | CN(CCO)CC[C@H](CSc1ccccc1)Nc1ccc(S(=O)(=O)NC(=O)c2ccc(N3CCC([C@@H](O)c4ccccc4-c4ccc(Cl)cc4)CC3)cc2)cc1S(=O)(=O)C(F)(F)F [AZD4320] + CCN(CCO)CCCOc1ccc2c(Nc3cc(CC(=O)Nc4cccc(F)c4)[nH]n3)ncnc2c1 [AZD2811] (first compound max 1 µM, 7x7, partner max 1 µM) | -0.0246 | 0.163 | 0.234 | -0.0294 | -0.0374 | -0.0217 | 0.0099 | -0.0297 | 0.0925 | -0.01 | 0.127 | 0.0362 | -0.0113 | 0.0409 | -0.0348 | -0.004 | 0.119 | 0.0257 | -0.0324 | 0.133
6 | CN(CCO)CC[C@H](CSc1ccccc1)Nc1ccc(S(=O)(=O)NC(=O)c2ccc(N3CCC([C@@H](O)c4ccccc4-c4ccc(Cl)cc4)CC3)cc2)cc1S(=O)(=O)C(F)(F)F [AZD4320] + CN(C)CCCOc1ccc(-c2ccc3ncc4c(c3c2)n(C2CCOCC2)c(=O)n4C)cn1 [AZD0156] (first compound max 1 µM, 7x7, partner max 1 µM) | -0.0553 | -0.0057 | -0.0756 | -0.0506 | -0.0503 | -0.0218 | -0.019 | -0.048 | -0.0513 | -0.0256 | -0.0105 | -0.0219 | 0.0468 | -0.0141 | -0.0185 | -0.0015 | -0.0408 | -0.0532 | -0.0217 | -0.0242
7 | CN(CCO)CC[C@H](CSc1ccccc1)Nc1ccc(S(=O)(=O)NC(=O)c2ccc(N3CCC([C@@H](O)c4ccccc4-c4ccc(Cl)cc4)CC3)cc2)cc1S(=O)(=O)C(F)(F)F [AZD4320] + C[C@@H]1COCCN1C2=NC(=NC(=C2)C3(CC3)[S@](=N)(=O)C)C4=C5C=CNC5=NC=C4 [AZD6738] (first compound max 1 µM, 7x7, partner max 10 µM) | -0.0584 | 0.0064 | 0.0527 | -0.109 | -0.0263 | -0.0589 | -0.0133 | -0.13 | -0.0234 | 0.0286 | 0.0351 | 0.0023 | -0.0126 | -0.0354 | -0.0305 | 0.0284 | -0.0163 | -0.054 | -0.112 | 0.0607
8 | CN(CCO)CC[C@H](CSc1ccccc1)Nc1ccc(S(=O)(=O)NC(=O)c2ccc(N3CCC([C@@H](O)c4ccccc4-c4ccc(Cl)cc4)CC3)cc2)cc1S(=O)(=O)C(F)(F)F [AZD4320] + C[C@@H](Nc1cc(F)cc(F)c1)c1cc(C(=O)N(C)C)cc2c(=O)cc(N3CCOCC3)oc12 [AZD8186] (first compound max 1 µM, 7x7, partner max 3 µM) | -0.0465 | 0.032 | 0.0244 | -0.0141 | -0.0081 | 0.0193 | 0.0228 | -0.0066 | -0.0258 | 0.0193 | 0.075 | -0.0233 | 0.0197 | -0.0073 | 0.0311 | 0.0823 | -0.0036 | 0.0482 | 0.0019 | 0.0322
9 | CN(CCO)CC[C@H](CSc1ccccc1)Nc1ccc(S(=O)(=O)NC(=O)c2ccc(N3CCC([C@@H](O)c4ccccc4-c4ccc(Cl)cc4)CC3)cc2)cc1S(=O)(=O)C(F)(F)F [AZD4320] + Cc1cc2ncnn2cc1Nc1ncc2c(n1)n(C1CCOCC1)c(=O)n2C [AZD7648] (first compound max 1 µM, 7x7, partner max 10 µM) | -0.0568 | -0.004 | 0.0654 | -0.0575 | -0.0428 | -0.0221 | -0.0188 | -0.0676 | -0.0576 | -0.018 | 0.017 | -0.006 | -0.0268 | -0.055 | 0.0016 | 0.0193 | -0.0186 | -0.0051 | -0.0393 | -0.0391
10 | CN(CCO)CC[C@H](CSc1ccccc1)Nc1ccc(S(=O)(=O)NC(=O)c2ccc(N3CCC([C@@H](O)c4ccccc4-c4ccc(Cl)cc4)CC3)cc2)cc1S(=O)(=O)C(F)(F)F [AZD4320] + Cn1cnc2c(F)c(Nc3ccc(Br)cc3Cl)c(C(=O)NOCCO)cc21 [Selumetinib] (first compound max 1 µM, 7x7, partner max 3 µM) | -0.007 | 0.112 | 0.0349 | 0.0314 | -0.0187 | 0.0023 | 0.0379 | -0.0401 | 0.0527 | 0.0283 | 0.0385 | 0.0316 | 0.0514 | 0.0304 | 0.069 | 0.0137 | 0.137 | 0.0228 | 0.0554 | -0.0218
11 | COc1nnc2ccc(N3CCC(c4ccc(OCCN5CCN(C)C(=O)[C@H]5C)cc4)CC3)nn12 [AZD5153] + C=CCn1c(=O)c2cnc(Nc3ccc(N4CCN(C)CC4)cc3)nc2n1-c1cccc(C(C)(C)O)n1 [AZD1775] (first compound max 1 µM, partner max 1 µM) | -0.0823 | -0.0064 | -0.0864 | 0.0167 | -0.0163 | -0.0852 | -0.0488 | -0.0187 | 0.0173 | -0.0249 | 0.0523 | -0.0647 | -0.0484 | -0.0367 | -0.033 | -0.0106 | 0.0344 | -0.0396 | 0.0095 | -0.0434
12 | COc1nnc2ccc(N3CCC(c4ccc(OCCN5CCN(C)C(=O)[C@H]5C)cc4)CC3)nn12 [AZD5153] + CC1(C)CCC(CN2CCN(c3ccc(C(=O)NS(=O)(=O)c4ccc(NCC5CCOCC5)c([N+](=O)[O-])c4)c(Oc4cnc5[nH]ccc5c4)c3)CC2)=C(c2ccc(Cl)cc2)C1 [Venetoclax] (first compound max 1 µM, 7x7, partner max 1 µM) | -0.0263 | -0.019 | -0.0979 | -0.0807 | -0.0762 | -0.0435 | -0.03 | -0.0456 | -0.0256 | -0.0124 | 0.0223 | -0.0392 | -0.0111 | -0.085 | -0.0648 | 0.0114 | -0.0558 | -0.0846 | -0.0682 | -0.0297
13 | COc1nnc2ccc(N3CCC(c4ccc(OCCN5CCN(C)C(=O)[C@H]5C)cc4)CC3)nn12 [AZD5153] + CCN(CCO)CCCOc1ccc2c(Nc3cc(CC(=O)Nc4cccc(F)c4)[nH]n3)ncnc2c1 [AZD2811] (first compound max 1 µM, 7x7, partner max 1 µM) | -0.0809 | -0.0391 | 0.0254 | -0.0427 | -0.0274 | 0.0152 | -0.0017 | -0.0479 | -0.0292 | -0.0682 | 0.0177 | -0.112 | -0.0366 | -0.0226 | -0.05 | -0.0282 | -0.154 | -0.0509 | -0.0423 | 0.0413
